According to ChEMBL document CHEMBL1201862, “PubChem BioAssay data set” (2004):
Where a name gives a salt, the structure may show the parent alone.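 1) Cells in 96-well plates. 2) Compound, 48 h, 5 concentrations. 3) Linear interpolation between surrounding doses. 4) Unreached endpoint = highest concentration. GI50: concentration for 50% inhibition of growth.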 Activity calls are given as the source filed them. No stated cut-off is given here; in the data, active = GI50 up to about 1.1 µM and inactive = higher.

Assays:
Assay in all cases: NCI tumour cell line growth inhibition, 48 h
MDA-MB-435 = tested on: MDA-MB-435
A549 = tested on: A549
CAKI-1 = tested on: CAKI-1
TK-10 = tested on: TK-10
SN12C = tested on: SN12C
T47D = tested on: T47D
SW-620 = tested on: SW-620
SK-OV-3 = tested on: SK-OV-3
HOP-92 = tested on: HOP-92
HCT-15 = tested on: HCT-15
DU-145 = tested on: DU-145
UACC-257 = tested on: UACC-257
NCI-H460 = tested on: NCI-H460
HCT-116 = tested on: HCT-116
NCI-H226 = tested on: NCI-H226
MCF7 = tested on: MCF7
NCI/ADR-RES = tested on: NCI/ADR-RES
Malme-3M = tested on: Malme-3M
A498 = tested on: A498
SK-MEL-28 = tested on: SK-MEL-28

CC[C@@H]1C(=O)OC[C@@H]1Cc1cncn1C [PILOCARPINE HYDROCHLORIDE]
GI50 (MDA-MB-435): > 100 µM (inactive)
GI50 (A549): > 100 µM (inactive)
GI50 (CAKI-1): > 100 µM (inactive)
GI50 (TK-10): > 100 µM (inactive)
GI50 (SN12C): > 100 µM (inactive)
GI50 (T47D): > 100 µM (inactive)
GI50 (SW-620): > 100 µM (inactive)
GI50 (SK-OV-3): > 100 µM (inactive)
GI50 (HOP-92): > 100 µM (inactive)
GI50 (HCT-15): > 100 µM
GI50 (DU-145): > 100 µM (inactive)
GI50 (UACC-257): > 100 µM (inactive)
GI50 (NCI-H460): > 100 µM (inactive)
GI50 (HCT-116): > 100 µM (inactive)
GI50 (NCI-H226): > 100 µM (inactive)
GI50 (MCF7): > 100 µM (inactive)
GI50 (NCI/ADR-RES): > 100 µM (inactive)
GI50 (Malme-3M): > 100 µM (inactive)
GI50 (A498): > 100 µM (inactive)
GI50 (SK-MEL-28): > 100 µM (inactive)

COc1cc(O)c2c(=O)c3ccccc3n(C)c2c1
GI50 (MDA-MB-435): > 100 µM (inactive)
GI50 (A549): > 100 µM (inactive)
GI50 (CAKI-1): > 100 µM (inactive)
GI50 (TK-10): 20.1 µM (inactive)
GI50 (SN12C): > 100 µM (inactive)
GI50 (T47D): > 100 µM (inactive)
GI50 (SW-620): 63.8 µM (inactive)
GI50 (SK-OV-3): 26.8 µM (inactive)
GI50 (HOP-92): 46.1 µM (inactive)
GI50 (HCT-15): 43.5 µM
GI50 (DU-145): > 100 µM (inactive)
GI50 (UACC-257): > 100 µM (inactive)
GI50 (NCI-H460): 4.48 µM (inactive)
GI50 (HCT-116): 10.2 µM (inactive)
GI50 (NCI-H226): > 100 µM (inactive)
GI50 (MCF7): > 100 µM (inactive)
GI50 (NCI/ADR-RES): 32.7 µM (inactive)
GI50 (Malme-3M): > 100 µM (inactive)
GI50 (A498): 90.4 µM (inactive)
GI50 (SK-MEL-28): > 100 µM (inactive)

CN(CCCCN1CCCC1)CCCN(C)C(=O)Cc1ccc(Cl)c(Cl)c1
GI50 (MDA-MB-435): 2.56 µM (inactive)
GI50 (A549): 18.7 µM (inactive)
GI50 (CAKI-1): 21.1 µM (inactive)
GI50 (TK-10): 17.7 µM (inactive)
GI50 (SN12C): 17.5 µM (inactive)
GI50 (T47D): 21 µM (inactive)
GI50 (SW-620): 17.7 µM (inactive)
GI50 (SK-OV-3): 33.3 µM (inactive)
GI50 (HOP-92): 4.57 µM (inactive)
GI50 (HCT-15): 27.3 µM
GI50 (DU-145): 37.1 µM (inactive)
GI50 (UACC-257): 3.29 µM (inactive)
GI50 (NCI-H460): 16.3 µM (inactive)
GI50 (HCT-116): 13.2 µM (inactive)
GI50 (NCI-H226): 26.9 µM (inactive)
GI50 (MCF7): 17.4 µM (inactive)
GI50 (NCI/ADR-RES): > 100 µM (inactive)
GI50 (Malme-3M): 18.8 µM (inactive)
GI50 (A498): 15.8 µM (inactive)
GI50 (SK-MEL-28): 1.79 µM (inactive)

COc1ccc2nc3cc(Cl)ccc3c(NCCCNCCCNc3c4ccc(Cl)cc4nc4ccc(OC)cc34)c2c1
GI50 (MDA-MB-435): 0.0374 µM (active)
GI50 (A549): 0.0132 µM (active)
GI50 (CAKI-1): 0.0156 µM (active)
GI50 (TK-10): 0.0741 µM (active)
GI50 (SN12C): < 0.01 µM (active)
GI50 (T47D): 0.0625 µM (active)
GI50 (SW-620): 0.0131 µM (active)
GI50 (SK-OV-3): 0.0352 µM (active)
GI50 (HOP-92): 0.0719 µM (active)
GI50 (HCT-15): 0.0174 µM
GI50 (DU-145): 0.0373 µM (active)
GI50 (UACC-257): 0.251 µM (active)
GI50 (NCI-H460): 0.0102 µM (active)
GI50 (HCT-116): < 0.01 µM (active)
GI50 (NCI-H226): < 0.01 µM (active)
GI50 (MCF7): 0.012 µM (active)
GI50 (NCI/ADR-RES): 0.581 µM (active)
GI50 (Malme-3M): 0.0604 µM (active)
GI50 (A498): 0.0541 µM (active)
GI50 (SK-MEL-28): 0.133 µM (active)
